Assay results taken from US10227357B2, “Compounds and methods for kinase modulation, and indications therefor” (Plexxikon Inc., priority 2012, dated 2019).

Experiments:
c-kit kinase = molecular target: T1, c-kit kinase (Homo sapiens, UniProt P10721); experiment: c-Kit biochemical assay, AlphaScreen, 10 μM ATP; details: c-kit biochemical inhibitory activity; read-out: Biochemical activity (IC50 μM) Kit
T1 construct: The c-kit (or kinase domain thereof) is an active kinase in AlphaScreen; poly-Histidine tag (in-house protein only) (cleaved yes); host or cells: E. coli BL21(DE3)RIL, co-expressed with PTP1B
Outline: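 His-tagged c-Kit expressed in E. coli with co-expressed PTP1B (dephosphorylated), tag removed; 0.1 ng per reaction with biotinylated-peptide substrate in 50 mM HEPES pH 7.2, 5 mM MgCl2, 5 mM MnCl2, 5% DMSO, 10 μM ATP, 1 h at room temperature. Phosphorylation detected by AlphaScreen (streptavidin donor, PY20 acceptor beads); IC50 from 8-point 1:3 dilution series.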

c-kit mutant D816V = molecular target: T2, c-kit mutant D816V (Homo sapiens, UniProt P10721, D816V/DEL694-753); experiment: c-Kit mutant D816V biochemical assay, AlphaScreen; details: c-kit D816V biochemical inhibitory activity; read-out: Biochemical activity (IC50 μM) Kit D816V
T2 construct: residues 551-934, kinase insertion domain residues 694-753 deleted; 6x-histidine (N); made in house; host or cells: E. coli Arctic Express (DE3) RIL (Stratagene)
Outline: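 Purified His-tagged c-Kit D816V (E. coli-expressed) assayed in 25 mM HEPES pH 7.2 with Mg/Mn, 5% DMSO and 10 μM ATP, 30 min at room temperature, 8-point 1:3 dilutions. Phosphorylation detected by AlphaScreen with streptavidin donor and PY20 acceptor beads; IC50 from signal versus concentration.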

T2 sequence (P10721 with tags, fused parts or gaps DEL694-753/D816V): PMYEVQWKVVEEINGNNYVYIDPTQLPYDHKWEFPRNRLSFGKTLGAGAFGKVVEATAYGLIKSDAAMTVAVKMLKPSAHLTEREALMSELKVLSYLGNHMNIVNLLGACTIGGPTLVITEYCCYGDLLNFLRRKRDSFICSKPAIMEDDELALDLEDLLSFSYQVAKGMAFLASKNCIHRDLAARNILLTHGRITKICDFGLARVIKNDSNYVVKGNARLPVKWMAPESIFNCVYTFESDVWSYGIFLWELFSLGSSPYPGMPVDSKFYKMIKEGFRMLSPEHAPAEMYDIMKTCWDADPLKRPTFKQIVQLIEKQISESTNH
T1 sequence (P10721 26-976): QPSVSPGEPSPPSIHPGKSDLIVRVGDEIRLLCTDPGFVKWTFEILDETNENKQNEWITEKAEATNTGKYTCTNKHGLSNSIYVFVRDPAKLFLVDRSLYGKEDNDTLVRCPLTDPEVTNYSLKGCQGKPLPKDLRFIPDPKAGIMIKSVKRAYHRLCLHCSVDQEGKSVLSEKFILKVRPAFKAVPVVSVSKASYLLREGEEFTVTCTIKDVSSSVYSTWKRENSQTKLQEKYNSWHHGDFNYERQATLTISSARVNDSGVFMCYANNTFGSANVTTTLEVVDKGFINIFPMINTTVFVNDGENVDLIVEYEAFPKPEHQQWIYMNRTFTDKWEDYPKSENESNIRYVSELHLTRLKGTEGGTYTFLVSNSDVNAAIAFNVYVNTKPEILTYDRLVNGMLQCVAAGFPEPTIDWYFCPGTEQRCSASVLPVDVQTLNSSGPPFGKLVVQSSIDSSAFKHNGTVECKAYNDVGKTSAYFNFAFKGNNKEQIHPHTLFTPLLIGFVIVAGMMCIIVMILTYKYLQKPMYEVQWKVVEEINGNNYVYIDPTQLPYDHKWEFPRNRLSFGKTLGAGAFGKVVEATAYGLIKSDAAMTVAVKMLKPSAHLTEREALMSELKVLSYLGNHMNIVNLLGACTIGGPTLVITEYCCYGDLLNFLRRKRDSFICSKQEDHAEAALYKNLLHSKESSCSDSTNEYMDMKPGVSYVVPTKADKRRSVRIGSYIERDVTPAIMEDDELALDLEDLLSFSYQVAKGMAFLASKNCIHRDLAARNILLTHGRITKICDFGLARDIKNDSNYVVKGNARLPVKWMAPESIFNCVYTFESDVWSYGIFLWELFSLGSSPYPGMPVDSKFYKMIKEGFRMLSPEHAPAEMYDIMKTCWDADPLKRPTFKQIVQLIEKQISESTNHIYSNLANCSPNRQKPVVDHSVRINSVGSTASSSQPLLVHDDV

Compound | IC50 (c-kit kinase) [µM] | IC50 (c-kit mutant D816V) [µM]
Cc1cc2c(N3CCN(C(=O)N[C@@H](C)c4ccc(F)cc4)[C@H](C)C3)ncnc2[nH]1 [P-0646, (2R)-N-[(1S)-1-(4-fluorophenyl)ethyl]-2-methyl-4-(6-methyl-7H-pyrrolo[2,3-d]pyrimidin-4-yl)piperazine-1-carboxamide] | 10 to 200 | 1 to 10
Cc1cc2c(N3CCN(C(=O)N[C@@H](C)c4cccc(Cl)c4)[C@H](C)C3)ncnc2[nH]1 [P-0647, (2R)-N-[(1S)-1-(3-chlorophenyl)ethyl]-2-methyl-4-(6-methyl-7H-pyrrolo[2,3-d]pyrimidin-4-yl)piperazine-1-carboxamide] | 1 to 10 | 0.0001 to 1
Cc1cc2c(N3CCN(C(=O)N[C@@H](C)c4cccc(OC(F)F)c4)[C@H](C)C3)ncnc2[nH]1 [P-0648, (2R)-N-[(1S)-1-[3-(difluoromethoxy)phenyl]ethyl]-2-methyl-4-(6-methyl-7H-pyrrolo[2,3-d]pyrimidin-4-yl)piperazine-1-carboxamide] | 10 to 200 | 0.0001 to 1
COc1cc([C@H](C)NC(=O)N2CCN(c3ncnc4[nH]c(-c5ccc(F)cc5)cc34)C[C@H]2C)ccc1Cl [P-0649, (2R)-N-[(1S)-1-(4-chloro-3-methoxy-phenyl)ethyl]-4-[6-(4-fluorophenyl)-7H-pyrrolo[2,3-d]pyrimidin-4-yl]-2-methyl-piperazine-1-carboxamide] | 1 to 10 | 0.0001 to 1
COc1cc(-c2cc3c(N4CCN(C(=O)N[C@@H](C)c5cccc(Cl)c5)C(C)(C)C4)ncnc3[nH]2)ccn1 [P-0650, N-[(1S)-1-(3-chlorophenyl)ethyl]-4-[6-(2-methoxy-4-pyridyl)-7H-pyrrolo[2,3-d]pyrimidin-4-yl]-2,2-dimethyl-piperazine-1-carboxamide] | 1 to 10 | 0.0001 to 1
COc1cc(-c2cc3c(C4=CCC(NS(=O)(=O)c5ccc(OC(F)(F)F)cc5)CC4)ncnc3[nH]2)ccn1 (stereo not drawn) [P-0654, N-[4-[6-(2-methoxy-4-pyridyl)-7H-pyrrolo[2,3-d]pyrimidin-4-yl]cyclohex-3-en-1-yl]-4-(trifluoromethoxy)benzenesulfonamide] | 10 to 200 | 0.0001 to 1
O=S(=O)(Nc1ccc(-c2ncnc3[nH]c(Cl)cc23)cc1)c1ccc(OC(F)F)cc1 [P-0655, N-[4-(6-chloro-7H-pyrrolo[2,3-d]pyrimidin-4-yl)phenyl]-4-(difluoromethoxy)benzenesulfonamide] | 1 to 10 | 1 to 10
CC1(C)C=C(c2cc3c(N4CCC(NS(=O)(=O)c5ccc(OC(F)(F)F)cc5)CC4)ncnc3[nH]2)CC(C)(C)N1 [P-0662, N-[1-[6-(2,2,6,6-tetramethyl-1,3-dihydropyridin-4-yl)-7H-pyrrolo[2,3-d]pyrimidin-4-yl]-4-piperidyl]-4-(trifluoromethoxy)benzenesulfonamide] | 1 to 10 | 1 to 10
Cc1nc(C)c(-c2cc3c(N4CCC(NS(=O)(=O)c5ccc(OC(F)(F)F)cc5)CC4)ncnc3[nH]2)s1 [P-0664, N-[1-[6-(2,4-dimethylthiazol-5-yl)-7H-pyrrolo[2,3-d]pyrimidin-4-yl]-4-piperidyl]-4-(trifluoromethoxy)benzenesulfonamide] | 1 to 10 | 0.0001 to 1
CCc1ccc(S(=O)(=O)NC2CCN(c3ncnc4[nH]c(-c5cnn(C)c5)cc34)CC2)s1 [P-0665, 5-ethyl-N-[1-[6-(1-methylpyrazol-4-yl)-7H-pyrrolo[2,3-d]pyrimidin-4-yl]-4-piperidyl]thiophene-2-sulfonamide] | 0.0001 to 1 | 0.0001 to 1
Cc1nn(C)cc1-c1cc2c(N3CCC(NS(=O)(=O)c4ccc(Cl)cc4)CC3)ncnc2[nH]1 [P-0667, 4-chloro-N-[1-[6-(1,3-dimethylpyrazol-4-yl)-7H-pyrrolo[2,3-d]pyrimidin-4-yl]-4-piperidyl]benzenesulfonamide] | 0.0001 to 1 | 0.0001 to 1
Cc1nn(C)cc1-c1cc2c(N3CCC(NS(=O)(=O)c4ccc(OC(F)(F)F)cc4)CC3)ncnc2[nH]1 [P-0668, N-[1-[6-(1,3-dimethylpyrazol-4-yl)-7H-pyrrolo[2,3-d]pyrimidin-4-yl]-4-piperidyl]-4-(trifluoromethoxy)benzenesulfonamide] | 0.0001 to 1 | 0.0001 to 1
O=S(=O)(NC1CCN(c2ncnc3[nH]c(C4=CCCC4)cc23)CC1)c1ccc(OC(F)(F)F)cc1 [P-0669, N-[1-[6-(cyclopenten-1-yl)-7H-pyrrolo[2,3-d]pyrimidin-4-yl]-4-piperidyl]-4-(trifluoromethoxy)benzenesulfonamide] | 0.0001 to 1 | 0.0001 to 1
Cc1ccc(S(=O)(=O)NC2CCN(c3ncnc4[nH]c(-c5cnn(C)c5)cc34)CC2C)cc1 (stereo not drawn) [P-0672, 4-methyl-N-[3-methyl-1-[6-(1-methylpyrazol-4-yl)-7H-pyrrolo[2,3-d]pyrimidin-4-yl]-4-piperidyl]benzenesulfonamide] | 0.0001 to 1 | 0.0001 to 1
CN(C)c1ncc(-c2cc3c(N4CCC(NS(=O)(=O)c5ccc(OC(F)(F)F)cc5)CC4)ncnc3[nH]2)s1 [P-0673, N-[1-[6-[2-(dimethylamino)thiazol-5-yl]-7H-pyrrolo[2,3-d]pyrimidin-4-yl]-4-piperidyl]-4-(trifluoromethoxy)benzenesulfonamide] | 1 to 10 | 1 to 10
CCc1ccc(S(=O)(=O)NC2CCN(c3ncnc4[nH]c(C)cc34)CC2)cc1 [P-0674, 4-ethyl-N-[1-(6-methyl-7H-pyrrolo[2,3-d]pyrimidin-4-yl)-4-piperidyl]benzenesulfonamide] | 10 to 200 | 1 to 10
Cc1ccc(S(=O)(=O)NC2CCN(c3ncnc4[nH]c(C)cc34)CC2)cc1 [P-0675, 4-methyl-N-[1-(6-methyl-7H-pyrrolo[2,3-d]pyrimidin-4-yl)-4-piperidyl]benzenesulfonamide] | 10 to 200 | 1 to 10
CCc1ccc(S(=O)(=O)NC2CCN(c3ncnc4[nH]c(-c5cnn(C)c5)cc34)CC2)cc1 [P-0676, 4-ethyl-N-[1-[6-(1-methylpyrazol-4-yl)-7H-pyrrolo[2,3-d]pyrimidin-4-yl]-4-piperidyl]benzenesulfonamide] | 0.0001 to 1 | 0.0001 to 1
CC(C)(NC(=O)N1CC=C(c2ncnc3cc(-c4ccc(F)cc4)sc23)CC1)c1ccccc1 [P-0679, 4-[6-(4-fluorophenyl)thieno[3,2-d]pyrimidin-4-yl]-N-(1-methyl-1-phenyl-ethyl)-3,6-dihydro-2H-pyridine-1-carboxamide] | 1 to 10 | 0.0001 to 1
COc1cccc([C@H](C)NC(=O)N2CCN(c3ncnc4cc(N5CCC(F)(F)CC5)sc34)CC2(C)C)c1 [P-0680, 4-[6-(4,4-difluoro-1-piperidyl)thieno[3,2-d]pyrimidin-4-yl]-N-[(1S)-1-(3-methoxyphenyl)ethyl]-2,2-dimethyl-piperazine-1-carboxamide] | 1 to 10 | 0.0001 to 1
CCOC(=O)N1CCN(c2cc3ncnc(N4CCN(C(=O)N[C@@H](C)c5cccc(OC)c5)C(C)(C)C4)c3s2)CC1 [P-0681, ethyl 4-[4-[4-[[(1S)-1-(3-methoxyphenyl)ethyl]carbamoyl]-3,3-dimethyl-piperazin-1-yl]thieno[3,2-d]pyrimidin-6-yl]piperazine-1-carboxylate] | 1 to 10 | 0.0001 to 1
COc1cccc([C@H](C)NC(=O)N2CCN(c3ncnc4[nH]c(C)cc34)C[C@H]2C)c1 [P-0683, (2R)-N-[(1S)-1-(3-methoxyphenyl)ethyl]-2-methyl-4-(6-methyl-7H-pyrrolo[2,3-d]pyrimidin-4-yl)piperazine-1-carboxamide] | 10 to 200 | 10 to 200
Cc1cc2c(N3CCN(C(=O)N[C@@H](C)c4cccc(F)c4)[C@H](C)C3)ncnc2[nH]1 [P-0684, (2R)-N-[(1S)-1-(3-fluorophenyl)ethyl]-2-methyl-4-(6-methyl-7H-pyrrolo[2,3-d]pyrimidin-4-yl)piperazine-1-carboxamide] | 10 to 200 | 0.0001 to 1
COc1cccc([C@H](C)NC(=O)N2CCN(c3ncnc4[nH]c(-c5ccc(C#N)cc5)cc34)CC2(C)C)c1 [P-0687, 4-[6-(4-cyanophenyl)-7H-pyrrolo[2,3-d]pyrimidin-4-yl]-N-[(1S)-1-(3-methoxyphenyl)ethyl]-2,2-dimethyl-piperazine-1-carboxamide] | 10 to 200 | 1 to 10
C[C@H](NC(=O)N1CCN(c2ncnc3[nH]c(-c4ccc(C#N)cc4)cc23)CC1(C)C)c1cccc(F)c1 [P-0688, 4-[6-(4-cyanophenyl)-7H-pyrrolo[2,3-d]pyrimidin-4-yl]-N-[(1S)-1-(3-fluorophenyl)ethyl]-2,2-dimethyl-piperazine-1-carboxamide] | 1 to 10 | 0.0001 to 1
C[C@H](NC(=O)N1CCN(c2ncnc3[nH]c(-c4ccc(C#N)cc4)cc23)CC1(C)C)c1cccc(Cl)c1 [P-0689, N-[(1S)-1-(3-chlorophenyl)ethyl]-4-[6-(4-cyanophenyl)-7H-pyrrolo[2,3-d]pyrimidin-4-yl]-2,2-dimethyl-piperazine-1-carboxamide] | 0.0001 to 1 | 0.0001 to 1
C[C@H](NC(=O)N1CCN(c2ncnc3[nH]c(-c4ccc(C#N)cc4)cc23)C[C@H]1C)c1ccc(F)cc1 [P-0690, (2R)-4-[6-(4-cyanophenyl)-7H-pyrrolo[2,3-d]pyrimidin-4-yl]-N-[(1S)-1-(4-fluorophenyl)ethyl]-2-methyl-piperazine-1-carboxamide] | 10 to 200 | 0.0001 to 1
